# Test results taken from article PMC5175178, “Development of an in-vivo active reversible butyrylcholinesterase inhibitor” (Scientific Reports, 2016).
# Where two headings read alike, the source gives them in different places.
# Assays:
# mAChE = target: T1, mAChE (Mus musculus, UniProt P21836); experiment: In-vitro inhibitory activity against mAChE, method of Ellman; assay type: biochemical, murine
# T1 construct: donated by Florian Nachon (IBS, Grenoble)
# T1 sequence (P21836 32-614): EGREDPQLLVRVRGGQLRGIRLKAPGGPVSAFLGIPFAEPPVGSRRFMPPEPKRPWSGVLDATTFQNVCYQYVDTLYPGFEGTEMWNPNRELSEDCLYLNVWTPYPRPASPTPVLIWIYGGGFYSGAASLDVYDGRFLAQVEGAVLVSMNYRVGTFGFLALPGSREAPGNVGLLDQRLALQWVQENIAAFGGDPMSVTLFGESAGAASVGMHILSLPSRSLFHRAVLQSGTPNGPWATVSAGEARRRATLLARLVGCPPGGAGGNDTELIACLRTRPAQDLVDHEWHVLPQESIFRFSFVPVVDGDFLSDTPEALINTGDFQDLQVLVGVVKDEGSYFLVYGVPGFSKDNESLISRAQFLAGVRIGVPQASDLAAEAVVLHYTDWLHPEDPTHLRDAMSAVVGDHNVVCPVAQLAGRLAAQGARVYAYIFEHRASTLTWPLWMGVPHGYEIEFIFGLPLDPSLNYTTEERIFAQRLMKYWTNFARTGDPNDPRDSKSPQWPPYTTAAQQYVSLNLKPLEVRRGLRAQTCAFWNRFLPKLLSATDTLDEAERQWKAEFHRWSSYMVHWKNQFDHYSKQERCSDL
# Description: (§1) The inhibitory potencies of the compounds against the ChEs were determined using the method of Ellman[32].
# (§2) The enzyme solutions were prepared by dilution of the concentrated stocks in phosphate-buffered solution (0.1 M, pH 8.0). […] The reactions were started by addition of the substrate, at room temperature. The final content of the organic solvent (DMSO) was always 1%. […] To determine the blank value (b), phosphate-buffered solution replaced the enzyme solution. The initial velocity (v0) was calculated from the slope of the linear trend obtained, with each measurement carried out in triplicate. […] The compounds were added to each well at a final concentration of 10 μM. […] The initial velocities in the presence of the test compounds (vi) were calculated. The inhibitory potencies are expressed as the residual activities (RA = (vi – b) / (vo – b)). […] The IC50 values were obtained by plotting the residual enzyme activities against the applied inhibitor concentrations, with the experimental data fitted to Equation (1):
# (§3) where X is the logarithm of the inhibitor concentration, and Y is the residual activity. For the fitting procedure, the Gnuplot software and an in-house python script were used.
# huBChE = target: T2, huBChE (Homo sapiens, UniProt P06276); assay type: biochemical; conditions: for IC50: head prints no unit, nM, read-out: IC50 ±SEM huBChE
# T2 construct: made in house
# Description: as §1, §2, §3
# [1] = residual activity at 10 µM, %RA >75% was considered no inhibition, Supplementary Table 1
# [2] = residual activity at 10 μM, %RA > 75% was considered as no inhibition, Table 1
# [3] = residual activity at 10 μM, Table 1
# T2 sequence (P06276 29-602): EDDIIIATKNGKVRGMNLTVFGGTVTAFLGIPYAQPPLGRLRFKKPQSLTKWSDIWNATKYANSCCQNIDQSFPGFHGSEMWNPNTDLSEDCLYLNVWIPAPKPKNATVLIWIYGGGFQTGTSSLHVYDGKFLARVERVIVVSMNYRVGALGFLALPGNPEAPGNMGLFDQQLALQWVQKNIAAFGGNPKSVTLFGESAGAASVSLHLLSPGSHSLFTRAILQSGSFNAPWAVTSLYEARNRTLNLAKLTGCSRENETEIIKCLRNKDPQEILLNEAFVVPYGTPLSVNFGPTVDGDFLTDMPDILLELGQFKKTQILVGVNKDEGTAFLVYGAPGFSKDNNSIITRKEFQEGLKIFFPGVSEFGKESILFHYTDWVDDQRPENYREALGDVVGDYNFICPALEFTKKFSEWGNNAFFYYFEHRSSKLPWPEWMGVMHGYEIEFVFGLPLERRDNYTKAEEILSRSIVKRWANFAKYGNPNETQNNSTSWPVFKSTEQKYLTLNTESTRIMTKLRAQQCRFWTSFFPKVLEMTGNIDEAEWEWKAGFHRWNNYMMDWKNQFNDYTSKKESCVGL
smiles,measurement,setting,value
"COCCCN(CC1CCCN(Cc2ccccc2)C1)S(=O)(=O)c1ccc2ccc(OCC#N)cc2c1 (racemic) [compound 49, (±)-N-((1-benzylpiperidin-3-yl)methyl)-7-(cyanomethoxy)-N-(3-methoxypropyl)naphthalene-2-sulfonamide]",%RA at 10 µM ±SEM mAChE,mAChE; [1],93% ±3%
same,IC50,huBChE; Supplementary Table 1,113 ± 8 nM
"COCCN(CC1CCCN(Cc2ccc(F)cc2)C1)S(=O)(=O)c1ccc2ccccc2c1 (racemic) [compound 37, (±)-N-((1-(4-fluorobenzyl)piperidin-3-yl)methyl)-N-(2-methoxyethyl)naphthalene-2-sulfonamide]",%RA at 10 µM ±SEM mAChE,mAChE; [1],89% ±3%
same,IC50,huBChE; Supplementary Table 1,23.1 ± 6 nM
"N#Cc1ccc(CN2CCCC(CNS(=O)(=O)c3ccc4ccccc4c3)C2)cc1 (racemic) [compound 69, (±)-N-((1-(4-cyanobenzyl)piperidin-3-yl)methyl)naphthalene-2-sulfonamide]",%RA at 10 µM ±SEM mAChE,mAChE; [1],93% ±5%
same,IC50,huBChE; Supplementary Table 1,2090 ± 328 nM
"CN(CC1CCCN(Cc2ccc(F)cc2)C1)S(=O)(=O)c1ccc2ccccc2c1 (racemic) [compound 72, (±)-N-((1-(4-fluorobenzyl)piperidin-3-yl)methyl)-N-methylnaphthalene-2-sulfonamide]",%RA at 10 µM ±SEM mAChE,mAChE; [1],96% ±2%
"COCCN(CC1CCCN(C2Cc3ccccc3C2)C1)S(=O)(=O)c1ccc(OC)cc1 (racemic) [compound 19, (±)-N-((1-(2,3-dihydro-1H-inden-2-yl)piperidin-3-yl)methyl)-4-methoxy-N-(2-methoxyethyl)benzenesulfonamide]",%RA at 10 µM ±SEM mAChE,mAChE; [1],87% ±7%
same,IC50,huBChE; Supplementary Table 1,482 ± 66 nM
"COCCN(CC1CCCN(C2Cc3ccccc3C2)C1)S(=O)(=O)c1ccccc1C(=O)OC (racemic) [compound 21, (±)-methyl 2-(N-((1-(2,3-dihydro-1H-inden-2-yl)piperidin-3-yl)methyl)-N-(2-methoxyethyl)sulfamoyl)benzoate]",%RA at 10 µM ±SEM mAChE,mAChE; [1],94% ±0.001%
same,IC50,huBChE; Supplementary Table 1,359 ± 18 nM
"COCCN(CC1CCCN(C2Cc3ccccc3C2)C1)S(=O)(=O)c1cccc(N)c1 (racemic) [compound 4, (±)-3-amino-N-((1-(2,3-dihydro-1H-inden-2-yl)piperidin-3-yl)methyl)-N-(2-methoxyethyl)benzenesulfonamide]",%RA at 10 µM ±SEM mAChE,mAChE; [2],90% ± 0.003%
same,%RA at 10 µM ±SEM mAChE,mAChE; [1],90% ±0.003%
same,%RA at 10μM ± SEM huBChE,huBChE; [3],2.34% ± 0.13%
"COCCN(CC1CCCN(Cc2cccc(F)c2)C1)S(=O)(=O)c1ccc2ccccc2c1 (racemic) [compound 38, (±)-N-((1-(3-fluorobenzyl)piperidin-3-yl)methyl)-N-(2-methoxyethyl)naphthalene-2-sulfonamide]",%RA at 10 µM ±SEM mAChE,mAChE; [1],99% ±0.001%
same,IC50,huBChE; Supplementary Table 1,49.1 ± 1.2 nM
"COCCN(CC1CCN(C2Cc3ccccc3C2)CC1)S(=O)(=O)c1ccc2ccccc2c1 [compound 84, N-((1-(2,3-dihydro-1H-inden-2-yl)piperidin-4-yl)methyl)-N-(2-methoxyethyl)naphthalene-2-sulfonamide]",%RA at 10 µM ±SEM mAChE,mAChE; [1],87% ±3%
"COCCN(CC1CCCN(Cc2ccc(C#N)cc2)C1)S(=O)(=O)c1ccc2ccccc2c1 (racemic) [compound 39, (±)-N-((1-(4-cyanobenzyl)piperidin-3-yl)methyl)-N-(2-methoxyethyl)naphthalene-2-sulfonamide]",%RA at 10 µM ±SEM mAChE,mAChE; [1],97% ±2%
same,IC50,huBChE; Supplementary Table 1,1460 ± 115 nM
"COCCN(CC1CCCN(C2Cc3ccccc3C2)C1)S(=O)(=O)c1cccc(NC(C)=O)c1 (racemic) [compound 24, (±)-N-(3-(N-((1-(2,3-dihydro-1H-inden-2-yl)piperidin-3-yl)methyl)-N-(2-methoxyethyl)sulfamoyl)phenyl)acetamide]",%RA at 10 µM ±SEM mAChE,mAChE; [1],95% ±4%
same,IC50,huBChE; Supplementary Table 1,8210 ± 601 nM
"COCCN(CC1CCCN(Cc2ccc(N(C)C)cc2)C1)S(=O)(=O)c1ccc2ccccc2c1 (racemic) [compound 41, (±)-N-((1-(4-(dimethylamino)benzyl)piperidin-3-yl)methyl)-N-(2-methoxyethyl)naphthalene-2-sulfonamide]",%RA at 10 µM ±SEM mAChE,mAChE; [1],105% ±6%
same,IC50,huBChE; Supplementary Table 1,311 ± 22 nM
"COCCCN(CC1CCN(C2Cc3ccccc3C2)CC1)S(=O)(=O)c1ccc2ccccc2c1 [compound 85, N-((1-(2,3-dihydro-1H-inden-2-yl)piperidin-4-yl)methyl)-N-(3-methoxypropyl)naphthalene-2-sulfonamide]",%RA at 10 µM ±SEM mAChE,mAChE; [1],86% ±0.004%
"CNC(=O)c1ccccc1S(=O)(=O)N(CCOC)CC1CCCN(C2Cc3ccccc3C2)C1 (racemic) [compound 25, (±)-2-(N-((1-(2,3-dihydro-1H-inden-2-yl)piperidin-3-yl)methyl)-N-(2-methoxyethyl)sulfamoyl)-N-methylbenzamide]",%RA at 10 µM ±SEM mAChE,mAChE; [1],101% ±4%
same,IC50,huBChE; Supplementary Table 1,3220 ± 492 nM
"O=S(=O)(NCC1CCCN(Cc2ccc(F)cc2)C1)c1ccc2ccccc2c1 (racemic) [compound 68, (±)-N-((1-(4-fluorobenzyl)piperidin-3-yl)methyl)naphthalene-2-sulfonamide]",%RA at 10 µM ±SEM mAChE,mAChE; [1],75% ±4%
same,IC50,huBChE; Supplementary Table 1,583 ± 43 nM
"COCCN(CC1CCCN(C2Cc3ccccc3C2)C1)S(=O)(=O)c1cccc([N+](=O)[O-])c1 (racemic) [compound 13, (±)-N-((1-(2,3-dihydro-1H-inden-2-yl)piperidin-3-yl)methyl)-N-(2-methoxyethyl)-3-nitrobenzenesulfonamide]",IC50,huBChE; Supplementary Table 1,3610 ± 528 nM
"COCCN(CC1CCCN(C2Cc3ccccc3C2)C1)C(=O)c1ccc2ccccc2c1 (centres unmarked) [compound 1, reference compound]",IC50,"mAChE; Table 1, read-out: IC50 (nM) ± SEM mAChE",102000 ± 2500 nM
"COCCN(CC1CCCN(Cc2cccc(C#N)c2)C1)S(=O)(=O)c1ccc2ccccc2c1 (racemic) [compound 40, (±)-N-((1-(3-cyanobenzyl)piperidin-3-yl)methyl)-N-(2-methoxyethyl)naphthalene-2-sulfonamide]",%RA at 10 µM ±SEM mAChE,mAChE; [1],93% ±3%
same,IC50,huBChE; Supplementary Table 1,338 ± 8 nM
"COCCN(CC1CCCN(C2Cc3ccccc3C2)C1)S(=O)(=O)c1ccc(NC(C)=O)cc1 (racemic) [compound 23, (±)-N-(4-(N-((1-(2,3-dihydro-1H-inden-2-yl)piperidin-3-yl)methyl)-N-(2-methoxyethyl)sulfamoyl)phenyl)acetamide]",%RA at 10 µM ±SEM mAChE,mAChE; [1],85% ±5%
same,IC50,huBChE; Supplementary Table 1,321 ± 35 nM
"O=S(=O)(NCC1CCCN(Cc2ccc(F)cc2Cl)C1)c1ccc2ccccc2c1 (racemic) [compound 67, (±)-N-((1-(2-chloro-4-fluorobenzyl)piperidin-3-yl)methyl)naphthalene-2-sulfonamide]",%RA at 10 µM ±SEM mAChE,mAChE; [1],73% ±4%
same,IC50,huBChE; Supplementary Table 1,347 ± 60 nM
"COCCCN(CC1CCCN(Cc2ccccc2)C1)S(=O)(=O)c1ccc2ccccc2c1 (racemic) [compound 5, (±)-N-((1-benzylpiperidin-3-yl)methyl)-N-(3-methoxypropyl)naphthalene-2-sulfonamide]",%RA at 10 µM ±SEM mAChE,mAChE; [2],95% ± 5%
same,%RA at 10 µM ±SEM mAChE,mAChE; [1],95% ±5%
same,%RA at 10μM ± SEM huBChE,huBChE; [3],0.71% ± 0.66%
"O=S(=O)(NCC1CCCN(c2nc3ccccc3s2)C1)c1ccc2ccccc2c1 (racemic) [compound 71, (±)-N-((1-(benzo[d]thiazol-2-yl)piperidin-3-yl)methyl)naphthalene-2-sulfonamide]",%RA at 10μM ± SEM huBChE,"huBChE; residual activity at 10 µM, Supplementary Table 1",30% ±2%
"O=S(=O)(NCC1CCN(Cc2ccccc2)CC1)c1ccc2ccccc2c1 [compound 86, N-((1-benzylpiperidin-4-yl)methyl)naphthalene-2-sulfonamide]",IC50,mAChE,1780 ± 85 nM
"CCCCN(CC1CCCN(Cc2ccccc2)C1)S(=O)(=O)c1ccc2ccccc2c1 (racemic) [compound 48, (±)-N-((1-benzylpiperidin-3-yl)methyl)-N-butylnaphthalene-2-sulfonamide]",%RA at 10 µM ±SEM mAChE,mAChE; [1],90% ±1%
same,IC50,huBChE; Supplementary Table 1,35.5 ± 4.4 nM
"COCCN(CC1CCCN(Cc2ccccc2)C1)S(=O)(=O)c1ccc2ccc(OC)cc2c1 (racemic) [compound 43, (±)-N-((1-benzylpiperidin-3-yl)methyl)-7-methoxy-N-(2-methoxyethyl)naphthalene-2-sulfonamide]",%RA at 10 µM ±SEM mAChE,mAChE; [1],95% ±7%
same,IC50,huBChE; Supplementary Table 1,156 ± 33 nM
"CCN(CC1CCCN(Cc2ccccc2)C1)S(=O)(=O)c1ccc2ccccc2c1 (racemic) [compound 46, (±)-N-((1-benzylpiperidin-3-yl)methyl)-N-ethylnaphthalene-2-sulfonamide]",%RA at 10 µM ±SEM mAChE,mAChE; [1],93% ±2%
same,IC50,huBChE; Supplementary Table 1,38 ± 2.6 nM
"O=S(=O)(NCC1CCCN(Cc2ccccc2)C1)c1ccc2ccccc2c1 (racemic) [compound 7, (±)-N-((1-benzylpiperidin-3-yl)methyl)naphthalene-2-sulfonamide]",%RA at 10 µM ±SEM mAChE,mAChE; [1],78% ±3%
"COCCN(CC1CCN(Cc2ccccc2)CC1)S(=O)(=O)c1ccc2ccccc2c1 [compound 75, N-((1-benzylpiperidin-4-yl)methyl)-N-(2-methoxyethyl)naphthalene-2-sulfonamide]",%RA at 10 µM ±SEM mAChE,mAChE; [1],98% ±1%
"CN(CC1CCCN(Cc2ccccc2)C1)S(=O)(=O)c1ccc2ccccc2c1 (racemic) [compound 8, (±)-N-((1-benzylpiperidin-3-yl)methyl)-N-methylnaphthalene-2-sulfonamide]",%RA at 10 µM ±SEM mAChE,mAChE; [1],82% ±1%
